{
  "source": "patent US11944624B2",
  "about": "“Peptide and small molecule agonists of EphA and their uses” (CASE WESTERN RESERVE UNIVERSITY, priority 2017, dated 2024)",
  "key": {"PC3-DAB2IP KD cells": {"test_system": "PC3-DAB2IP KD cells", "assay": "Haptotactic cell migration toward fibronectin, PC3-DAB2IP KD", "assay_type": "cell-based, human", "conditions": "4 hours", "excerpt": "(§1) One of the well-established functions of Eph receptors is the ligand-dependent repulsive guidance of cell migration. As a ligand-mimicking agonist for EphA2, doxazosin is expected to activate EphA2 on tumor cells and repulse migrating tumor cells in vitro. To test this possibility, we first investigated the effects of doxazosin on integrin-mediated haptotactic cell migration toward fibronectin in a modified Boyden chamber cell migration assay. […] The inhibitory effects were observed when doxazosin was presented either in the bottom chamber, or in both top and bottom chambers in the Transwell assay system. […] Therefore, doxazosin can recapitulate a key function attributed to its native ligands, i.e., negative regulation of cell migration."}, "ERK and Akt activities": {"test_system": "ERK and Akt activities", "assay": "ERK and Akt activities in LK133A-A2 cells (EphA2 restored)", "assay_type": "cell-based, mice", "procedure": "Cells were plated in 24-well dishes at a density of 100,000 cells/well and grown for 24 hours prior to stimulation with appropriate compounds and ephrins for the given amounts of time. Compounds were prepared in DMSO at 500 times the final concentrations and 0.2% DMSO was used as vehicle control. Following treatment, cells were lysed directly in SDS Gel Loading Buffer and immunoblotted as described previously. Immunoprecipitation and immunofluorescence staining was performed as described. For immunoprecipitation, 300,000 cells/well were plated in 6-well dishes and lysed in modified RIPA Buffer (20 mM Tris-HCl pH 7.4, 20 mM NaF, 150 mM NaCl, 10% glycerol, 0.1% SDS, 0.5% DCA, 2 mM EDTA, 1% Triton X-100) following treatment. Either 10 μg of ephrin-A1-Fc, or […] of EphA2 mouse monoclonal antibody (Clone D7, Millipore) were used, and mouse IgG was used as a negative control for EphA2 IP.\nTo address this question, we utilized an immortalized liver epithelial cell line, LK133A, isolated from a hepatoma induced by DEN in EphA2 knockout mice. Retroviral vector was used to restore EphA2 expression in these cells (LK133A-A2), and cells transduced with an empty vector were used as control (LK133AVec)."}, "A172-A2 glioma cells": {"test_system": "A172-A2 glioma cells", "assay": "Haptotactic cell migration toward fibronectin, A172-A2", "assay_type": "cell-based", "conditions": "A172-A2, 4 hours", "excerpt": "as §1"}, "EphB3": {"target": "T1, EphB3 (Homo sapiens, UniProt P54753)", "T1 construct": "expressed in transfected cells; host or cells: HEK 293", "T1 sequence (P54753 34-998)": "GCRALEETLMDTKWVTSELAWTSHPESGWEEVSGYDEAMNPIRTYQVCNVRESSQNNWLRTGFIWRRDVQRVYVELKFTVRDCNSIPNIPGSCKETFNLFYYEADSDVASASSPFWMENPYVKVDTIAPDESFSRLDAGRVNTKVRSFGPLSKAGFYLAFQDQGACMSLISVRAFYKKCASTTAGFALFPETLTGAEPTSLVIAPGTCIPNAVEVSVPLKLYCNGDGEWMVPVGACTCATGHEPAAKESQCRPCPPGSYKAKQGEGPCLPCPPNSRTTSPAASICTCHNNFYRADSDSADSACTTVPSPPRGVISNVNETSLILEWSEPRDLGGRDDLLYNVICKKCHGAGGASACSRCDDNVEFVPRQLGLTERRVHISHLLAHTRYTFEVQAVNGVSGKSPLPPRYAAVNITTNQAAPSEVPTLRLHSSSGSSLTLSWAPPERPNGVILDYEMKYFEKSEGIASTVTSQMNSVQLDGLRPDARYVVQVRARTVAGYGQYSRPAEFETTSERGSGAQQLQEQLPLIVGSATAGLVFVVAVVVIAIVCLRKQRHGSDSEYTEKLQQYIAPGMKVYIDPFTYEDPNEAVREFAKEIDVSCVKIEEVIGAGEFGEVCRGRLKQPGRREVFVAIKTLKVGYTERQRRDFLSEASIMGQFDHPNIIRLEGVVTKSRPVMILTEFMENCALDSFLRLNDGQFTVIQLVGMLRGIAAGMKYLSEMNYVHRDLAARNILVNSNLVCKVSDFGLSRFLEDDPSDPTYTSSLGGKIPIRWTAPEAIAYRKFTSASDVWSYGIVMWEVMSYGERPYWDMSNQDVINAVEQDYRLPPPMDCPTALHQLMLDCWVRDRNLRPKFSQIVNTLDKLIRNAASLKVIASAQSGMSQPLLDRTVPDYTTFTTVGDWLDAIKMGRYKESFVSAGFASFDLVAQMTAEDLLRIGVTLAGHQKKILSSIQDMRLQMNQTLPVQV", "assay": "EphB3 activation in HEK 293 cells overexpressing EphB3", "assay_type": "cell-based", "conditions": "HEK 293 overexpressing EphB3, high basal activation", "experimental": "(§2) Cells were plated in 24-well dishes at a density of 100,000 cells/well and grown for 24 hours prior to stimulation with appropriate compounds and ephrins for the given amounts of time. Compounds were prepared in DMSO at 500 times the final concentrations and 0.2% DMSO was used as vehicle control. Following treatment, cells were lysed directly in SDS Gel Loading Buffer and immunoblotted as described previously. […] For immunoprecipitation, 300,000 cells/well were plated in 6-well dishes and lysed in modified RIPA Buffer (20 mM Tris-HCl pH 7.4, 20 mM NaF, 150 mM NaCl, 10% glycerol, 0.1% SDS, 0.5% DCA, 2 mM EDTA, 1% Triton X-100) following treatment. Either 10 μg of ephrin-A1-Fc, or 4 mg of EphA2 mouse monoclonal antibody (Clone D7, Millipore) were used, and mouse IgG was used as a negative control for EphA2 IP. […] For this purpose, HEK 293 cell lines overexpressing EphA1, EphA2, EphA3, EphA4, and EphB3 kinases were utilized."}, "EphA3": {"target": "T2, EphA3 (Homo sapiens, UniProt P29320)", "T2 construct": "expressed in transfected cells; host or cells: HEK 293", "T2 sequence (P29320 21-983)": "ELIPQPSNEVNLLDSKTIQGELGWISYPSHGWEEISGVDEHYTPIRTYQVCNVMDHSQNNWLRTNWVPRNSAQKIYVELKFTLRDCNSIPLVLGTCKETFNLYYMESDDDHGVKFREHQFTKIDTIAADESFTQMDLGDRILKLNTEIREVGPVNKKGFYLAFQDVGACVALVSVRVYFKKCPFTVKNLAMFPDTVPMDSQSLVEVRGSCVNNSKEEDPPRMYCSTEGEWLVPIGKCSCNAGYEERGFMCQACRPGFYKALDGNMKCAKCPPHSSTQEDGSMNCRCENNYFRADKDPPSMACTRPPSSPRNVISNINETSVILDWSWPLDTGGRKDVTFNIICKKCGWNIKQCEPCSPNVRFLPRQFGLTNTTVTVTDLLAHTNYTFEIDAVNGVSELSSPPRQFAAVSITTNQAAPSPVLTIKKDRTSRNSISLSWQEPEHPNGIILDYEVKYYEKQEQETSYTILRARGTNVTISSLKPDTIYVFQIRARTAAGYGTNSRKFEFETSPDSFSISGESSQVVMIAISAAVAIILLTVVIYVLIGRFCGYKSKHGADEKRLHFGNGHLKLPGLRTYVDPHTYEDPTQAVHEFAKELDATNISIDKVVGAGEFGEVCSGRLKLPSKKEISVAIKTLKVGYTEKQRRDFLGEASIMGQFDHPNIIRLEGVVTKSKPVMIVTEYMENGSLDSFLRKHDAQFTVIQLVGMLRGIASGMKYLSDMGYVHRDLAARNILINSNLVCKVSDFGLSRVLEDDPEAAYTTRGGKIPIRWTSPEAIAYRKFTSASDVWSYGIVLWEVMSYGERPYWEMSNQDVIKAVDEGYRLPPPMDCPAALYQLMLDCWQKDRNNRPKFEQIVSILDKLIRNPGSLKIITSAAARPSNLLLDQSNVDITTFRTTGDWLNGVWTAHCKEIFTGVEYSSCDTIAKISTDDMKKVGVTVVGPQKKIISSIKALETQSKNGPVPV", "assay": "EphA3 activation in HEK 293 cells overexpressing EphA3", "assay_type": "cell-based", "conditions": "HEK 293 overexpressing EphA3, compared to EphA2 and EphA4", "experimental": "as §2"}, "[1]": {"test_system": "MDA-MB-231 breast cancer cells", "assay": "Haptotactic cell migration toward fibronectin, MDA-MB-231", "assay_type": "cell-based", "conditions": "MDA-MB-231, 4 hours", "excerpt": "as §1"}},
  "data": [
    {"smiles": "COc1cc2nc(N3CCN(C(=O)C4COc5ccccc5O4)CC3)nc(N)c2cc1OC", "note": "(stereo not drawn) [Doxazosin, 2-[4-(2,3-Dihydro-1,4-benzodioxine-2-carbonyl)piperazin-1-yl]-6,7-dimethoxyquinazolin-4-amine]", "values": [
      {"measurement": "haptotactic cell migration toward fibronectin", "setting": "PC3-DAB2IP KD cells", "value": "dose-dependent inhibition of cell migration"},
      {"measurement": "ERK and Akt inhibition after reintroduction of EphA2", "setting": "ERK and Akt activities", "value": "restored ERK and Akt inhibition"},
      {"measurement": "haptotactic cell migration toward fibronectin", "setting": "A172-A2 glioma cells", "value": "dose-dependent inhibition of cell migration"},
      {"measurement": "EphB3 activation", "setting": "EphB3", "value": "notable decrease in EphB3 activation"},
      {"measurement": "EphA3 activation", "setting": "EphA3", "value": "activation of EphA3 was weak"},
      {"measurement": "haptotactic cell migration toward fibronectin", "setting": "[1]", "value": "dose-dependent inhibition of cell migration"}
    ]}
  ]
}
